Experimental data from patent publication US7256200B2, “Method and composition for potentiating an oplate analgesic” (The Board of Trustees of the University of Illinois, a body …, priority 2003, dated 2007).
Entries after “also recorded” stand apart in the source; their conditions may differ.

Assays:
[1] = Acute model of opioid tolerance (single s.c. morphine 100 mg/kg); format: in vivo; conditions: for prevention of opioid tolerance, acute model: administered simultaneously with morphine 100 mg/kg s.c., FIG. 6
From the text: (§1) Acute tolerance and dependence model is a method commonly used by researchers. […] In addition, the CaMKII inhibitor KN93 also was effective in reversing an already-established tolerance or dependence in the model (FIGS. 8 and 9). […] All effects are dose-dependent on the magnitude of inhibition of CaMKII.

CaMKII [2] = target: CaMKII (Homo sapiens, UniProt Q9UQM7); conditions: structural analog of KN93 used as control; cited from earlier work
[3] = Acute model of opioid dependence (single s.c. morphine 100 mg/kg); format: in vivo
From the text: as §1

morphine-pelleted rats = assay: Morphine antinociceptive tolerance in morphine-pelleted rats, 52° C. warm water tail-flick test; format: in vivo, rat
Description: Individual groups of eight rats were implanted with i.th. catheters and allowed to recover for 5 to 7 days.
Individual groups of eight rats were implanted with i.th. catheters and allowed to recover for 5 to 7 days. […] KN93 dose-response effect was determined and compared to its effect in inhibiting CaMKII activity.
Male Sprague-Dawley rats (250-350 g) were used in all experiments.
For i.th. drug administration, rats were prepared according to the method described by Sakura et al. (1996). While under isoflurane anesthesia, an 8 cm length of PE10 tubing (32 gauge) was inserted through an incision made in the atlantooccipital membrane to the level of the lumbar enlargement. The catheter then was secured to the musculature at the site of incision, which then was closed. The rats were allowed 5 to 7 days to recover before experiments begin. […] Intrathecally administered substances were dissolved in saline and administered in a volume of 5 μl through a tubing with calibrated length connecting the i.th. catheter with the injection syringe. Progress of the injection was monitored carefully by observing the movement of a small air bubble (1 μl in volume) through the tubing. The catheter was cleared by flushing with 9 μl saline. In all cases, a dye was injected into the cannula at the termination of the experiment to ensure correct i.th. placement.
Briefly, while under isoflurane anesthesia, a 1.5 cm incision was made on the back of the animal. […] These pellets were left for less than 7 days unless otherwise indicated.
Latency to warm water tail withdrawal response was determined in the manner described previously (Wang et al., 2001, Vanderah et al., 2001). The one-third of distal tail was immersed into a water bath maintained at 52° C. […] The data were converted to % MPE (maximal possible effect), defined as 100×(test-control)/(cutoff-control), where control was the predrug observation, test was the postdrug observation, and cutoff was 10 seconds. Dose-response curves were generated over time to determine the time of peak effect, the dose producing 50% MPE (A50), and its confidence intervals (Tallarida et al., 1986).

protein kinase A = conditions: at doses administered; cited from earlier work
PKC = conditions: at doses administered; cited from earlier work
mice = assay: Chronic mouse model of opioid tolerance (s.c. 75 mg morphine pellet); format: in vivo; conditions: FIG. 5
From the text: Additional in vivo tests corroborated initial test results showing that administration of a CaMKII inhibitor reduces or eliminates opioid tolerance and dependence. […] Administration of a CaMKII inhibitor, i.e., KN93, effectively reversed the established tolerance to opioids (FIG. 5). The effect of KN93 is dose dependent.

CaMKII [4] = assay: Spinal CaMKII activity (pCaMKII Western blot) in morphine-pelleted rats; format: in vivo, rat; conditions: lumbar spinal cord, morphine vs placebo pelleted rats, two pairs of animals, β-actin control; FIG. 4
From the text: The average increase of CaMKII activity from two pairs of animals was 250%.
Briefly, while under isoflurane anesthesia, a 1.5 cm incision was made on the back of the animal. Morphine and placebo pellets were implanted into the subcutaneous space and the incision was closed with wound clips. These pellets were left for less than 7 days unless otherwise indicated.
Rats were sacrificed by carbon dioxide inhalation and decapitated. The spinal column was cut through at the S1/S2 level. A 16-gauge needle was inserted in the sacral vertebral canal, attached to a syringe containing ice-cold saline, and the spinal cord was ejected through the cervical opening. The spinal cord was placed on ice in a glass Petri dish and rapidly dissected using a dissecting microscope. For consistency, the lumbar enlargement corresponding to the L1 to L6 spinal segments was excised and used for all assays. […]
Spinal segments or harvested SH-SY5Y cells were homogenized on ice in RIPA buffer (1% NP-40, 0.5% sodium deoxycholate, 0.1% sodium dodecyl sulfate (SDS), 5 mM EDTA in PBS, pH 7.4) (3 ml/g wet tissue, or 0.6 ml/10 cm dish) in the presence of protease inhibitors (0.05 mg/ml pepstatin, 0.05 mg/ml aprotinin, 0.1 mg/ml phenylmethylsulfonyl fluoride). […] ECL-detected bands were analyzed using a densitometer and. Quantity One analysis program (BioRad, Hercules, Calif.).

Chain of CaMKII (Homo sapiens, UniProt Q9UQM7) (Q9UQM7 whole entry): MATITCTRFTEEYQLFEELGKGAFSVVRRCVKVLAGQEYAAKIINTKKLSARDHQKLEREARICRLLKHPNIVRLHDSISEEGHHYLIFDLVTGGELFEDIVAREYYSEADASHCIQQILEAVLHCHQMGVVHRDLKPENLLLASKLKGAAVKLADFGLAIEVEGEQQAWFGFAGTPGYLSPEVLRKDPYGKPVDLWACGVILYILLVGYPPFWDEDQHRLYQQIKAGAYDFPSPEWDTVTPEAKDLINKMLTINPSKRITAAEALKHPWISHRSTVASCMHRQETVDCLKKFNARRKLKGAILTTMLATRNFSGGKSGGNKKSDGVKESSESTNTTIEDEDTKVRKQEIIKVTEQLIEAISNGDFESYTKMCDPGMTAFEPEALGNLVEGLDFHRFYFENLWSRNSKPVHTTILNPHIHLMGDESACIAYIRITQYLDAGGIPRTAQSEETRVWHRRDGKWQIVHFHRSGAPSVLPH

SMILES | prevention of opioid tolerance, acute model [1] | inhibition of CaMKII (CaMKII [2]) | prevention of opioid dependence, acute model ([3]; administered simultaneously with morphine 100 mg/kg s.c., FIG. 7) | reversal of established opioid dependence, acute model ([3]; already-established dependence, FIG. 9) | effect on established morphine antinociceptive tolerance (morphine-pelleted rats; KN93 15 nmol i.th. 15 minutes before i.th. morphine, 45 minutes before tail-flick, p<0.05 vs MS group, FIG. 3) | effect on basal nociception (morphine-pelleted rats; KN93 alone, data not shown) | effect on morphine-antinociception in naïve rats (morphine-pelleted rats; naïve rats, data not shown) | effect on morphine-induced analgesia (morphine-pelleted rats; summary of test results) | reversal of established opioid tolerance, acute model ([1]; already-established tolerance, FIG. 8) | inhibition of protein kinase A (protein kinase A) | inhibition of PKC (PKC) | effect on established opioid tolerance, chronic model (mice; chronic morphine pellet) | antinociceptive effect of acute i.th. morphine in morphine-pelleted vs placebo-pelleted rats (morphine-pelleted rats; two 75 mg morphine pellets s.c., day 5, i.th. morphine 10 μg, 30 minutes, FIG. 3) | average increase of CaMKII activity (pCaMKII content) (CaMKII [4]) [%] | antinociceptive effects of morphine after chronic morphine treatment (mice; s.c. 75 mg controlled-release pellet up to seven days)
COc1ccc(S(=O)(=O)Nc2ccccc2CN(C)C/C=C/c2ccc(Cl)cc2)cc1 [KN92] | does not affect opioid tolerance | does not inhibit |  |  |  |  |  |  |  |  |  |  |  |  | 
COc1ccc(S(=O)(=O)N(CCO)c2ccccc2CN(C)CC=Cc2ccc(Cl)cc2)cc1 [KN93] | prevents opioid tolerance |  | dose-dependently prevents | dose-dependently reverses | reversed; also recorded: blocked | did not alter | nor did KN93 affect | does not affect | dose-dependently reverses | does not inhibit | does not inhibit | dose-dependently reverses |  |  | 
CN1CC[C@]23c4c5ccc(O)c4O[C@H]2[C@@H](O)C=C[C@H]3[C@H]1C5 [morphine] |  |  |  |  |  |  |  |  |  |  |  |  | significantly reduced antinociceptive effect | 250 | significantly reduced antinociceptive effects
